According to patent publication US8822503B2, “2-pyridone compounds” (Taisho Pharmaceutical Co., Ltd, priority 2009, dated 2014):

target: T1, human liver GK (Homo sapiens, UniProt P35557); experiment: GK activation test; assay type: biochemical; details: test compound concentration needed to activate 50% of maximum activation ability; 4 mM 14C-labeled glucose, 2 mM ATP, room temperature, 20 minutes
T1 construct: GST (glutathione S-transferase) (N); made in house; host or cells: E. coli
T1 sequence (P35557 1-466 isoform P35557-2): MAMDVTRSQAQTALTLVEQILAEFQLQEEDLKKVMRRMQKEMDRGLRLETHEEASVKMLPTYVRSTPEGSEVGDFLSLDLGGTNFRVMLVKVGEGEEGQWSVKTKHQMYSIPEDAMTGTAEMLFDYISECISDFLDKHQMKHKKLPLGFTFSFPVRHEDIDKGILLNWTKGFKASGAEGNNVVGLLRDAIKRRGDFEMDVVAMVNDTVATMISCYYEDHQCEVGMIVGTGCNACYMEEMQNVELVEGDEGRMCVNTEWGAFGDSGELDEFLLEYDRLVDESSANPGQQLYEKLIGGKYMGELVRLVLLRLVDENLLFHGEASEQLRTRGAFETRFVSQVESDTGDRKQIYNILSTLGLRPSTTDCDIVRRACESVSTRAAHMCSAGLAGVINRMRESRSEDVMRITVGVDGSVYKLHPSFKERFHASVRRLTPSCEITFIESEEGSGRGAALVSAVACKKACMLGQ
How it was run: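 GST-tagged human liver GK from E. coli (0.24 μg/well) with 4 mM 14C-glucose, 2 mM ATP in Hepes-KOH pH 7.1, KCl, MgCl2, DTT, 1% DMSO, 20 min room temperature. Labeled glucose 6-phosphate captured on anion resin, eluted and counted. EC50 = concentration giving half of maximal activation.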

EC50 [nM]	SMILES
500 to 3000	COc1ccc(/C(=C\C2CCOCC2)c2ccc(C3CC3)c(=O)[nH]2)cc1 [Example 1-51, 3-Cyclopropyl-6-[(E)-1-(4-methoxyphenyl)-2-(tetrahydro-2H-pyran-4-yl)ethenyl]pyridin-2(1H)-one]
500 to 3000	CCOc1ccc(/C(=C\C2CCOCC2)c2ccc(C3CC3)c(=O)[nH]2)cc1 [Example 1-52, 3-Cyclopropyl-6-[(E)-1-(4-ethoxyphenyl)-2-(tetrahydro-2H-pyran-4-yl)ethenyl]pyridin-2(1H)-one]
500 to 3000	COc1ccc(/C(=C\C2CCOCC2)c2ccc(C3CC3)c(=O)[nH]2)cc1Cl [Example 1-53, 6-[(E)-1-(3-Chloro-4-methoxyphenyl)-2-(tetrahydro-2H-pyran-4-yl)ethenyl]-3-cyclopropylpyridin-2(1H)-one]
500 to 3000	COc1ccc(/C(=C\C2CCOCC2)c2ccc(C(F)(F)F)c(=O)[nH]2)cc1Cl [Example 1-54, 6-[(E)-1-(3-Chloro-4-methoxyphenyl)-2-(tetrahydro-2H-pyran-4-yl)ethenyl]-3-(trifluoromethyl)pyridin-2(1H)-one]
500 to 3000	CSc1ccc(/C(=C\C2CCOCC2)c2ccc(C)c(=O)[nH]2)cc1Cl [Example 1-55, 6-[(E)-1-[3-Chloro-4-(methylsulfanyl)phenyl]-2-(tetrahydro-2H-pyran-4-yl)ethenyl]-3-methylpyridin-2(1H)-one]
500 to 3000	Cc1ccc(/C(=C/C2CCOCC2)c2ccc(S(C)(=O)=O)c(Cl)c2)[nH]c1=O [Example 1-56, 6-{(E)-1-[3-Chloro-4-(methylsulfonyl)phenyl]-2-(tetrahydro-2H-pyran-4-yl)ethenyl}-3-methylpyridin-2(1H)-one]
500 to 3000	CCN(CC)CCCOc1ccc(/C(=C\C2CCOCC2)c2ccc(C3CC3)c(=O)[nH]2)cc1Cl [Example 1-57, 6-[(E)-1-{3-Chloro-4-[3-(diethylamino)propoxy]phenyl}-2-(tetrahydro-2H-pyran-4-yl)ethenyl]-3-cyclopropylpyridin-2(1H)-one]
10 to 500	CCc1ccc(/C(=C\[C@H]2CCC(=O)C2)c2ccc(C3CC3)c(=O)[nH]2)cc1 [Example 1-58, 3-Cyclopropyl-6-{(E)-1-(4-ethylphenyl)-2-[(1S)-3-oxocyclopentyl]ethenyl}pyridin-2(1H)-one]
10 to 500	CCOc1ccc(/C(=C\[C@H]2CCC(=O)C2)c2ccc(CC)c(=O)[nH]2)cc1Cl [Example 1-59, 6-{(E)-1-(3-Chloro-4-ethoxyphenyl)-2-[(1S)-3-oxocyclopentyl]ethenyl}-3-ethylpyridin-2(1H)-one]
10 to 500	Cc1ccc(/C(=C/[C@H]2CCC(=O)C2)c2ccc(SC3CC3)cc2)[nH]c1=O [Example 1-60, 6-{(E)-1-[4-(Cyclopropylsulfanyl)phenyl]-2-[(1S)-3-oxocyclopentyl]ethenyl}-3-methylpyridin-2(1H)-one]
10 to 500	Cc1ccc(/C(=C/[C@H]2CCC(=O)C2)c2ccc(S(=O)(=O)C3CC3)cc2)[nH]c1=O [Example 1-61, 6-{(E)-1-[4-(Cyclopropylsulfonyl)phenyl]-2-[(1S)-3-oxocyclopentyl]ethenyl}-3-methylpyridin-2(1H)-one]
10 to 500	CCc1ccc(/C(=C/[C@H]2CCC(=O)C2)c2ccc(S(=O)(=O)C3CC3)cc2)[nH]c1=O [Example 1-62, 6-{(E)-1-[4-(Cyclopropylsulfonyl)phenyl]-2-[(1S)-3-oxocyclopentyl]ethenyl}-3-ethylpyridin-2(1H)-one]
500 to 3000	O=C1CC[C@H](/C=C(\c2ccc(S(=O)(=O)C3CC3)cc2)c2ccc(C(F)(F)F)c(=O)[nH]2)C1 [Example 1-63, 6-{(E)-1-[4-(Cyclopropylsulfonyl)phenyl]-2-[(1S)-3-oxocyclopentyl]ethenyl}-3-(trifluoromethyl)pyridin-2(1H)-one]
10 to 500	CSc1ccc(/C(=C\[C@H]2CCC(=O)C2)c2ccc(C(C)C)c(=O)[nH]2)cc1 [Example 1-64, 6-{(E)-1-[4-(Methylsulfanyl)phenyl]-2-[(1S)-3-oxocyclopentyl]ethenyl}-3-(propan-2-yl)pyridin-2(1H)-one]
10 to 500	CSc1ccc(/C(=C\[C@H]2CCC(=O)C2)c2ccc(C3CC3)c(=O)[nH]2)cc1 [Example 1-65, 3-Cyclopropyl-6-{(E)-1-[4-(methylsulfanyl)phenyl]-2-[(1S)-3-oxocyclopentyl]ethenyl}pyridin-2(1H)-one]
500 to 3000	CCN(CC)CCCOc1ccc(/C(=C\[C@H]2CCC(=O)C2)c2ccc(C3CC3)c(=O)[nH]2)cc1 [Example 1-66, 3-Cyclopropyl-6-{(E)-1-{4-[3-(diethylamino)propoxy]phenyl}-2-[(1S)-3-oxocyclopentyl]ethenyl}pyridin-2(1H)-one]

Continued, compound first:

SMILES	EC50 [nM]
Cc1ccc(/C(=C/CC2CCCC2)c2ccc(SC3CC3)cc2)[nH]c1=O [Example 1-36, 6-{(1E)-3-Cyclopentyl-1-[4-(cyclopropylsulfanyl)phenyl]prop-1-en-1-yl}-3-methylpyridin-2(1H)-one]	10 to 500
Cc1ccc(/C(=C/CC2CCCC2)c2ccc(S(=O)(=O)C3CC3)cc2)[nH]c1=O [Example 1-37, 6-{(1E)-3-Cyclopentyl-1-[4-(cyclopropylsulfonyl)phenyl]prop-1-en-1-yl}-3-methylpyridin-2(1H)-one]	10 to 500
O=c1[nH]c(/C(=C/C2CCCC2)c2ccc(CCCCO)cc2)ccc1C(F)(F)F [Example 1-38, 6-{(E)-2-Cyclopentyl-1-[4-(4-hydroxybutyl)phenyl]ethenyl}-3-(trifluoromethyl)pyridin-2(1H)-one]	500 to 3000
CCN(CC)CCCCc1ccc(/C(=C\C2CCCC2)c2ccc(C(F)(F)F)c(=O)[nH]2)cc1 [Example 1-39, 6-[(E)-2-Cyclopentyl-1-{4-[4-(diethylamino)butyl]phenyl}ethenyl]-3-(trifluoromethyl)pyridin-2(1H)-one]	500 to 3000
O=c1[nH]c(/C(=C/C2CCCC2)c2ccc(S(=O)(=O)CCCO)cc2)ccc1C(F)(F)F [Example 1-40, 6-[(E)-2-Cyclopentyl-1-{4-[(3-hydroxypropyl)sulfonyl]phenyl}ethenyl]-3-(trifluoromethyl)pyridin-2(1H)-one]	500 to 3000
CCN(CC)CCCS(=O)(=O)c1ccc(/C(=C\C2CCCC2)c2ccc(C(F)(F)F)c(=O)[nH]2)cc1 [Example 1-41, 6-[(E)-2-Cyclopentyl-1-(4-{[3-(diethylamino)propyl]sulfonyl}phenyl)ethenyl]-3-(trifluoromethyl)pyridin-2(1H)-one]	500 to 3000
CCN(CC)CCCC(=O)c1ccc(/C(=C\C2CCCC2)c2ccc(C(F)(F)F)c(=O)[nH]2)cc1 [Example 1-42, 6-[(E)-2-Cyclopentyl-1-{4-[4-(diethylamino)butanoyl]phenyl}ethenyl]-3-(trifluoromethyl)pyridin-2(1H)-one]	500 to 3000
CCN(CC)CCCNc1ccc(/C(=C\C2CCCC2)c2ccc(C(F)(F)F)c(=O)[nH]2)cc1 [Example 1-43, 6-[(E)-2-Cyclopentyl-1-(4-{[3-(diethylamino)propyl]amino}phenyl)ethenyl]-3-(trifluoromethyl)pyridin-2(1H)-one]	3000 to 10000
CCNCCCOc1ccc(/C(=C\C2CCCC2)c2ccc(C3CC3)c(=O)[nH]2)cc1Cl [Example 1-44, 6-[(E)-1-{3-Chloro-4-[3-(ethylamino)propoxy]phenyl}-2-cyclopentylethenyl]-3-cyclopropylpyridin-2(1H)-one]	500 to 3000
CCN(CC)CCNC(=O)c1ccc(/C(=C\C2CCCC2)c2ccc(C3CC3)c(=O)[nH]2)cc1 [Example 1-45, 4-[(E)-2-Cyclopentyl-1-(5-cyclopropyl-6-oxo-1,6-dihydropyridin-2-yl)ethenyl]-N-[2-(diethylamino)ethyl]benzamide]	500 to 3000
CN1CCN(S(=O)(=O)c2ccc(/C(=C\C3CCCC3)c3ccc(Cl)c(=O)[nH]3)cc2)CC1 [Example 1-46, 3-Chloro-6-[(E)-2-cyclopentyl-1-{4-[(4-methylpiperazin-1-yl)sulfonyl]phenyl}ethenyl]pyridin-2(1H)-one]	500 to 3000
CSc1ccc(/C(=C\C2CCOC2)c2ccc(C3CC3)c(=O)[nH]2)cc1 (stereo not shown) [Example 1-47, 3-Cyclopropyl-6-[(E)-1-[4-(methylsulfanyl)phenyl]-2-(tetrahydrofuran-3-yl)ethenyl]pyridin-2(1H)-one]	10 to 500
O=c1[nH]c(/C(=C/C2CCOC2)c2ccc(SC3CC3)cc2)ccc1C(F)(F)F (stereo not shown) [Example 1-48, 6-{(E)-1-[4-(Cyclopropylsulfanyl)phenyl]-2-(tetrahydrofuran-3-yl)ethenyl}-3-(trifluoromethyl)pyridin-2(1H)-one]	500 to 3000
CSc1ccc(/C(=C\CC2CCOC2)c2ccc(C3CC3)c(=O)[nH]2)cc1 (stereo not shown) [Example 1-49, 3-Cyclopropyl-6-{(1E)-1-[4-(methylsulfanyl)phenyl]-3-(tetrahydrofuran-3-yl)prop-1-en-1-yl}pyridin-2(1H)-one]	500 to 3000
COc1ccc(/C(=C\CC2CCCO2)c2ccc(C3CC3)c(=O)[nH]2)cc1Cl (stereo not shown) [Example 1-50, 6-[(1E)-1-(3-Chloro-4-methoxyphenyl)-3-(tetrahydrofuran-2-yl)prop-1-en-1-yl]-3-cyclopropylpyridin-2(1H)-one]	500 to 3000
